Experimental data as given in publication PMC6481345, “A novel anti-melanoma SRC-family kinase inhibitor” (Oncotarget, 2019).

What was measured:
[1] = system: CCRF-CEM leukemia cell line; assay: NCI-60 human tumor cell line screen; assay type: cell-based
Experimental: (§1) We first tested the impact of SAB298 on NCI-60 human tumor cell lines that included eight melanomas (performed by the NCI Development Therapeutics Program).
(§2) SFK-inhibitors were tested on a panel of NCI-60 cell lines (Supplementary Table 1) and 30 melanoma cell lines and NBMEL, i.e., normal human melanocytes isolated from a newborn foreskin (Table 1 and Supplementary Table 2). The Yale melanoma cohort designated YU originated from tumors excised to improve patient quality of life and used with participants’ informed consent according to Health Insurance Portability and Accountability Act (HIPAA) regulations with Human Investigative Committee protocol.
(§3) Supplementary Table 1: Cellular activity of SAB298 in a Panel of NCI-60 cancer cell lines*
(§4) measured protein; and TI is LC50/GI50.
(§5) Supplementary Table 2: Description of Melanoma Cell lines. See Supplementary_Table_2

[2] = system: HCT-116 colon cancer cell line; assay: NCI-60 human tumor cell line screen; assay type: cell-based
Experimental: as §1, §2, §3, §4, §5

[3] = system: KM12 colon cancer cell line; assay: NCI-60 human tumor cell line screen; assay type: cell-based
Experimental: as §1, §2, §3, §4, §5

[4] = system: LOX IMVI melanoma cell line; assay: NCI-60 human tumor cell line screen; assay type: cell-based
Experimental: as §1, §2, §3, §4, §5

M14 melanoma cell line = assay: NCI-60 human tumor cell line screen; assay type: cell-based
Experimental: as §1, §2, §3, §4, §5

[5] = system: MCF7 breast cancer cell line; assay: NCI-60 human tumor cell line screen; assay type: cell-based
Experimental: as §1, §2, §3, §4, §5

[6] = system: MDA-MB-435 melanoma cell line; assay: NCI-60 human tumor cell line screen; assay type: cell-based
Experimental: as §1, §2, §3, §4, §5

[7] = system: MOLT-4 leukemia cell line; assay: NCI-60 human tumor cell line screen; assay type: cell-based
Experimental: as §1, §2, §3, §4, §5

NCI-1460 NSCLC cell line = assay: NCI-60 human tumor cell line screen; assay type: cell-based
Experimental: as §1, §2, §3, §4, §5

[8] = system: SF-268 CNS cancer cell line; assay: NCI-60 human tumor cell line screen; assay type: cell-based
Experimental: as §1, §2, §3, §4, §5

[9] = system: SK-MEL-28 melanoma cell line; assay: NCI-60 human tumor cell line screen; assay type: cell-based
Experimental: as §1, §2, §3, §4, §5

[10] = system: SK-MEL-5 melanoma cell line; assay: NCI-60 human tumor cell line screen; assay type: cell-based
Experimental: as §1, §2, §3, §4, §5

SR leukemia cell line = assay: NCI-60 human tumor cell line screen; assay type: cell-based
Experimental: as §1, §2, §3, §4, §5

[11] = system: UACC-62 melanoma cell line; assay: NCI-60 human tumor cell line screen; assay type: cell-based
Experimental: as §1, §2, §3, §4, §5

[12] = system: NCI-60 melanoma cell lines; assay: NCI-60 human tumor cell line screen, melanomas (summary); assay type: cell-based; conditions: melanoma cell lines of NCI-60, read-out: IC50, range over cell lines
Experimental: as §1, §2, §3, §4, §5

melanoma cells = assay: Apoptosis (annexin V staining and caspase activity); assay type: cell-based, human; conditions: 0.5 µM and 1 µM, 24 hrs
Experimental: The rate of apoptosis was measured using the Dead Cell Apoptosis Kit with Alexa Fluor® 488 annexin V and propidium iodide (Invitrogen, V13241). Phosphatidylserine was visualized by flow cytometry following the manufacturer’s instructions. The assay was done in response to SAB298 (0.5 µM and 1 µM, 24 hrs), compared to DMSO (negative control) or camptothecin (10 µM), as a positive control. In addition, we used the 96-well colorimetric Caspase 3 Assay kit (Millipore Sigma) to measure caspase activity in response to increasing concentrations of SAB298, and western blotting for apoptotic markers, such as cleaved PARP. […]
www.oncotarget.com Oncotarget, Supplementary Materials
A novel anti-melanoma src-family kinase inhibitor
Supplementary Figure 1: Apoptosis in response to SAB298. […]
melanoma cells treated for 24 hrs with SAB298 (0.5 and 1 µM). (C) A bar plot showing the differential levels of annexin positive cells in response to SAB298. (D) Caspase activity in response to SAB298 of four different cell lines (YUSIV, YUSIK, YUGASP and YUSEEP).
(1 picture or pasted object on this page, not shown here)

phospho-PP2A Y307 = assay: Western blot, inactivated PP2A; assay type: cell-based, human; conditions: YUSIK and YUSIV melanoma cells
Experimental: We used standard techniques to identify changes in intracellular signaling in response to various treatments. Briefly, melanoma cells were incubated with test compounds, using DMSO as a control, collected by scraping on ice, and lysed in RIPA buffer supplemented with protease and phosphatase inhibitors (MA #78428, and #78425, respectively, Thermo Fisher Scientific, Waltham, MA). Protein concentrations were measured with the BioRad kit (Bio-Rad Laboratories, Hercules, CA), SDS sample buffer was added, extracts were heated at 95°C, sonicated and centrifuged. Cell extracts (20 µg/lane) were fractionated in 3%–8% or 4–12 % tris-acetate gel (NP0006, NuPAGE Life Technologies). […]

[13] = 50% growth inhibition, five dose, average of 2 experiments
[14] = cytotoxic concentration, 50% reduction in measured protein, read-out: LC50 (the source's name)

Compound: Nc1ncnc2c1c(-c1ccc(Oc3ccccc3)cc1)nn2C[C@@H]1SSC[C@@H]1O [SAB298, (3S, 4S)-3-((4-amino-3-(4-phenoxyphenyl)-1H-pyrazolo[3,4-d]pyrimidin-1-yl)methyl)-1,2-dithiolan-4-ol]
- GI50 [1, 13]: 61 nM
- CC50 [1, 14]: > 100000 nM
- GI50 [2, 13]: 134 nM
- CC50 [2, 14]: 6520 nM
- GI50 [3, 13]: 181 nM
- CC50 [3, 14]: 79300 nM
- GI50 [4, 13]: 170 nM
- CC50 [4, 14]: 4560 nM
- GI50 (M14 melanoma cell line; [13]): 21 nM
- CC50 (M14 melanoma cell line; [14]): 105 nM
- GI50 [5, 13]: 138 nM
- CC50 [5, 14]: 53000 nM
- GI50 [6, 13]: 103 nM
- CC50 [6, 14]: 618 nM
- GI50 [7, 13]: 32 nM
- CC50 [7, 14]: > 100000 nM
- GI50 (NCI-1460 NSCLC cell line; [13]): 29 nM
- CC50 (NCI-1460 NSCLC cell line; [14]): 551 nM
- GI50 [8, 13]: 38 nM
- CC50 [8, 14]: > 100000 nM
- GI50 [9, 13]: 88 nM
- CC50 [9, 14]: > 100000 nM
- GI50 [10, 13]: 251 nM
- CC50 [10, 14]: 2680 nM
- GI50 (SR leukemia cell line; [13]): 38 nM
- CC50 (SR leukemia cell line; [14]): > 100000 nM
- GI50 [11, 13]: 182 nM
- CC50 [11, 14]: 872 nM
- IC50 [12]: 21 to 550 nM
- Apoptosis (annexin staining and caspase activity) (melanoma cells): induced apoptosis
- inactivated PP2A (phospho-PP2A Y307) level (phospho-PP2A Y307): increase in the levels of inactivated PP2A
